*1 amine or outer side, *2 acyl side, *3 side chain or, on linkers, in order; H or OH if unused. Where a SMILES comes first, the peptide text is derived from it. Side-chain parts run from the residue outwards. [ ]: non-standard residue; d: D form. The star is where a group is joined. PEG28 = NCCOCCOCCOCCOCCOCCOCCOCCOCCOCCOCCOCCOCCOCCOCCOCCOCCOCCOCCOCCOCCOCCOCCOCCOCCOCCOCCOCCOCCC(=O)O; PEG24 = NCCOCCOCCOCCOCCOCCOCCOCCOCCOCCOCCOCCOCCOCCOCCOCCOCCOCCOCCOCCOCCOCCOCCOCCOCCC(=O)O; PEG12 = NCCOCCOCCOCCOCCOCCOCCOCCOCCOCCOCCOCCOCCC(=O)O; Lys(Me3) = C[N+](C)(C)CCCC[C@H](N)C(=O)O; γGlu = O=C(O)[C@H](CCC(=O)[*:2])N[*:1]; Arg(Me) = CNC(=N)NCCC[C@H](N)C(=O)O; Stearoyl = CCCCCCCCCCCCCCCCCC(=O)*; Palmitoyl = CCCCCCCCCCCCCCCC(=O)*; αMeK = C[C@](N)(CCCCN)C(=O)O; Lauroyl = CCCCCCCCCCCC(=O)*; Nle = CCCC[C@H](N)C(=O)O; AEEA = NCCOCCOCC(=O)O; Aib = CC(C)(N)C(=O)O
Biological target: T1, RXFP1 (Homo sapiens, UniProt Q9HBX9)
T1 construct: OVCAR5 cells expressing endogenous RXFP1; endogenous in cells; host or cells: OVCAR5 cells
T1 sequence (Q9HBX9 1-757): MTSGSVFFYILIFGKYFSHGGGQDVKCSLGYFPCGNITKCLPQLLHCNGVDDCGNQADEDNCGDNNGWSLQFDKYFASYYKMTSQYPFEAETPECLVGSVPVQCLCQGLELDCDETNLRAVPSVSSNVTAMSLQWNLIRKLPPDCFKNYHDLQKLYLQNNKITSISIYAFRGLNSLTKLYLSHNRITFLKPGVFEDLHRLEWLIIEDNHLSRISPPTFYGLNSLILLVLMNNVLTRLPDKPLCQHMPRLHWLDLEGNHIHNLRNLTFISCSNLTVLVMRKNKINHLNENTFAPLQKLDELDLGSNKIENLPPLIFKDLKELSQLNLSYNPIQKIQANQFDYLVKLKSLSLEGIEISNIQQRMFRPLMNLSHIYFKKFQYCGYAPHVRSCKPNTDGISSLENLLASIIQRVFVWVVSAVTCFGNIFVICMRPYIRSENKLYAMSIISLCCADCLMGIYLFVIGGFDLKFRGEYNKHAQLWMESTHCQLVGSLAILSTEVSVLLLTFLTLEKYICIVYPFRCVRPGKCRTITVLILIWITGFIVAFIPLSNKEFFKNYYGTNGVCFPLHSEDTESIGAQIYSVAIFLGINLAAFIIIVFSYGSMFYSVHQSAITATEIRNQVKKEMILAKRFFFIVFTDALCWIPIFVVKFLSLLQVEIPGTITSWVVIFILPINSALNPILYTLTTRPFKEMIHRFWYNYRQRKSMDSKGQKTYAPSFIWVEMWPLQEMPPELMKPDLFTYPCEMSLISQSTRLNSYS
Experiment: OVCAR5 cAMP assay (HTRF), RXFP1 agonist activity
Type: cell-based
Conditions: for Emax: OVCAR-5, maximal cAMP relative to H2-relaxin maximum (100%), read-out: EMax, OVCAR 5 cells (cAMP); for EC50: OVCAR5 cells, cAMP HTRF, read-out: EC50 (nM), OVCAR 5 cells (cAMP)
In short: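 OVCAR5 cells (endogenous RXFP1) pretreated 40 min at 37° C with 1 mM IBMX, then exposed to peptides in serum-free medium for 30 min at 37° C. Lysate cAMP read by HTRF; EC50 from variable-slope sigmoidal fit; Emax as % of H2-relaxin maximal cAMP in same run.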

Row | Structure (SMILES) | Emax | EC50
1 | CCCCCCCCCCCCCCCCCC(=O)N[C@@H](CCC(=O)N[C@@H](CCC(=O)N[C@@H](CCC(=O)N[C@@H](CCC(=O)NCCOCCOCC(=O)NCCOCCOCC(=O)NCCOCCOCC(=O)NCCCC[C@H](NC(=O)[C@H](CCCCNC(C)=O)NC(=O)[C@H](CCCC[N+](C)(C)C)NC(=O)[C@H](CCCNC(=N)NC)NC(=O)[C@](C)(CCCCN)NC(=O)[C@H](CO)NC(=O)[C@H](Cc1c[nH]c2ccccc12)NC(=O)[C@@H](NC(=O)[C@H](CO)NC(=O)[C@H](CCCC)NC(=O)CNC(=O)[C@H](CCC(=O)O)NC(=O)C(C)(C)NC(=O)C(C)(C)NC(=O)[C@@H](NC(=O)[C@H](CCCCNC(C)=O)NC(=O)[C@H](C)NC(=O)[C@H](CCCNC(=N)N)NC(=O)[C@@H](NC(=O)[C@H](CCCCN)NC(=O)[C@H](CCC(=O)O)NC(=O)[C@H](CCCNC(=N)N)NC(=O)CNC(=O)[C@H](CCC(=O)O)NC(=O)[C@H](CC(C)C)NC(C)=O)C(C)C)[C@@H](C)CC)[C@@H](C)O)C(N)=O)C(=O)O)C(=O)O)C(=O)O)C(=O)O [compound 138] (Ac-LEGREKVRAK(Ac)I[Aib][Aib]EG[Nle]STWS[αMeK][Arg(Me)][Lys(Me3)]K(Ac)K([AEEA-AEEA-AEEA-γGlu-γGlu-γGlu-γGlu-Stearoyl])-NH2) | 91% | 
2 | CCCCCCCCCCCCCCCCCC(=O)N[C@@H](CCC(=O)N[C@@H](CCC(=O)N[C@@H](CCC(=O)NCCCC[C@H](NC(=O)CCOCCOCCOCCOCCOCCOCCOCCOCCOCCOCCOCCOCCOCCOCCOCCOCCOCCOCCOCCOCCOCCOCCOCCOCCOCCOCCOCCOCCNC(=O)[C@H](CCCCNC(C)=O)NC(=O)[C@H](CCCCN)NC(=O)[C@H](CCCNC(=N)N)NC(=O)C(C)(C)NC(=O)[C@H](CO)NC(=O)[C@H](Cc1c[nH]c2ccccc12)NC(=O)[C@@H](NC(=O)[C@H](CO)NC(=O)[C@H](CCCC)NC(=O)CNC(=O)[C@H](CCC(=O)O)NC(=O)C(C)(C)NC(=O)C(C)(C)NC(=O)[C@@H](NC(=O)[C@H](CCCCNC(C)=O)NC(=O)[C@H](C)NC(=O)[C@H](CCCNC(=N)N)NC(=O)[C@@H](NC(=O)[C@H](CCCCN)NC(=O)[C@H](CCC(=O)O)NC(=O)[C@H](CCCNC(=N)N)NC(=O)CNC(=O)[C@H](CCC(=O)O)NC(=O)[C@H](CC(C)C)NC(C)=O)C(C)C)[C@@H](C)CC)[C@@H](C)O)C(N)=O)C(=O)O)C(=O)O)C(=O)O [compound 49] (Ac-LEGREKVRAK(Ac)I[Aib][Aib]EG[Nle]STWS[Aib]RKK(Ac)[PEG28]K([γGlu-γGlu-γGlu-Stearoyl])-NH2) | 106% | 
3 | CCCCCCCCCCCCCCCC(=O)N[C@@H](CCC(=O)N[C@@H](CCC(=O)N[C@@H](CCC(=O)NCCCC[C@H](NC(=O)CCOCCOCCOCCOCCOCCOCCOCCOCCOCCOCCOCCOCCNC(=O)[C@H](CCCCN)NC(=O)[C@H](CCCNC(=N)N)NC(=O)C(C)(C)NC(=O)[C@H](CO)NC(=O)[C@H](Cc1c[nH]c2ccccc12)NC(=O)[C@@H](NC(=O)[C@H](CO)NC(=O)[C@H](CCSC)NC(=O)CNC(=O)[C@H](CCC(=O)O)NC(=O)C(C)(C)NC(=O)C(C)(C)NC(=O)[C@@H](NC(=O)[C@H](CCCCNC(C)=O)NC(=O)[C@H](C)NC(=O)[C@H](CCCNC(=N)N)NC(=O)[C@@H](NC(=O)[C@H](CCCCN)NC(=O)[C@H](CCC(=O)O)NC(=O)[C@H](CCCNC(=N)N)NC(=O)CNC(=O)[C@H](CCC(=O)O)NC(=O)[C@H](CC(C)C)NC(C)=O)C(C)C)[C@@H](C)CC)[C@@H](C)O)C(N)=O)C(=O)O)C(=O)O)C(=O)O [compound 25] (Ac-LEGREKVRAK(Ac)I[Aib][Aib]EGMSTWS[Aib]RK[PEG12]K([γGlu-γGlu-γGlu-Palmitoyl])-NH2) | 95% | 1.21 nM
4 | CCCCCCCCCCCCCCCC(=O)N[C@@H](CCC(=O)N[C@@H](CCC(=O)N[C@@H](CCC(=O)N[C@@H](CCC(=O)NCCOCCOCC(=O)NCCOCCOCC(=O)NCCOCCOCC(=O)NCCOCCOCC(=O)NCCCC[C@H](NC(=O)[C@H](CCCCNC(C)=O)NC(=O)[C@H](CCCCN)NC(=O)[C@H](CCCNC(=N)N)NC(=O)[C@](C)(CCCCN)NC(=O)[C@H](CO)NC(=O)[C@H](Cc1ccccc1)NC(=O)[C@@H](NC(=O)[C@H](CO)NC(=O)[C@H](CCCC)NC(=O)CNC(=O)[C@H](CCC(=O)O)NC(=O)C(C)(C)NC(=O)C(C)(C)NC(=O)[C@@H](NC(=O)[C@H](CCCCNC(C)=O)NC(=O)[C@H](C)NC(=O)[C@H](CCCNC(=N)N)NC(=O)[C@@H](NC(=O)[C@H](CCCCN)NC(=O)[C@H](CCC(=O)O)NC(=O)[C@H](CCCNC(=N)N)NC(=O)CNC(=O)[C@H](CCC(=O)O)NC(=O)[C@H](CC(C)C)NC(C)=O)C(C)C)[C@@H](C)CC)[C@@H](C)O)C(N)=O)C(=O)O)C(=O)O)C(=O)O)C(=O)O [compound 140] (Ac-LEGREKVRAK(Ac)I[Aib][Aib]EG[Nle]STFS[αMeK]RKK(Ac)K([AEEA-AEEA-AEEA-AEEA-γGlu-γGlu-γGlu-γGlu-Palmitoyl])-NH2) | 88% | 0.4 nM
5 | CCCCCCCCCCCC(=O)N[C@@H](CCC(=O)N[C@@H](CCC(=O)N[C@@H](CCC(=O)N[C@@H](CCC(=O)NCCCC[C@H](NC(=O)COCCOCCNC(=O)COCCOCCNC(=O)COCCOCCNC(=O)COCCOCCNC(=O)[C@H](CCCCNC(C)=O)NC(=O)[C@H](C)NC(=O)[C@H](CCCNC(=N)N)NC(=O)[C@](C)(CCCCN)NC(=O)[C@H](CO)NC(=O)[C@H](Cc1ccccc1)NC(=O)[C@@H](NC(=O)[C@H](CO)NC(=O)[C@H](CCC(N)=O)NC(=O)CNC(=O)[C@H](CCC(=O)O)NC(=O)C(C)(C)NC(=O)C(C)(C)NC(=O)[C@@H](NC(=O)[C@H](CCCCNC(C)=O)NC(=O)[C@H](C)NC(=O)[C@H](CCCNC(=N)N)NC(=O)[C@@H](NC(=O)[C@H](CCCCN)NC(=O)[C@H](CCC(=O)O)NC(=O)[C@H](CCCNC(=N)N)NC(=O)CNC(=O)[C@H](CCC(=O)O)NC(=O)[C@H](CC(C)C)NC(C)=O)C(C)C)[C@@H](C)CC)[C@@H](C)O)C(N)=O)C(=O)O)C(=O)O)C(=O)O)C(=O)O [compound 161] (Ac-LEGREKVRAK(Ac)I[Aib][Aib]EGQSTFS[αMeK]RAK(Ac)[AEEA][AEEA][AEEA][AEEA]K([γGlu-γGlu-γGlu-γGlu-Lauroyl])-NH2) | 94% | 
6 | CCCCCCCCCCCCCCCC(=O)N[C@@H](CCC(=O)N[C@@H](CCC(=O)N[C@@H](CCC(=O)NCCCC[C@H](NC(=O)CCOCCOCCOCCOCCOCCOCCOCCOCCOCCOCCOCCOCCOCCOCCOCCOCCOCCOCCOCCOCCOCCOCCOCCOCCNC(=O)[C@H](CCCCN)NC(=O)[C@H](CCCNC(=N)N)NC(=O)C(C)(C)NC(=O)[C@H](CO)NC(=O)[C@H](Cc1c[nH]c2ccccc12)NC(=O)[C@@H](NC(=O)[C@H](CO)NC(=O)[C@H](CCSC)NC(=O)CNC(=O)[C@H](CCC(=O)O)NC(=O)C(C)(C)NC(=O)C(C)(C)NC(=O)[C@@H](NC(=O)[C@H](CCC(N)=O)NC(=O)[C@H](C)NC(=O)[C@H](CCCNC(=N)N)NC(=O)[C@@H](NC(=O)[C@H](CCCCN)NC(=O)[C@H](CCC(=O)O)NC(=O)[C@H](CCCNC(=N)N)NC(=O)CNC(=O)[C@H](CCC(=O)O)NC(=O)[C@H](CC(C)C)NC(C)=O)C(C)C)[C@@H](C)CC)[C@@H](C)O)C(N)=O)C(=O)O)C(=O)O)C(=O)O [compound 47] (Ac-LEGREKVRAQI[Aib][Aib]EGMSTWS[Aib]RK[PEG24]K([γGlu-γGlu-γGlu-Palmitoyl])-NH2) | 100% | 
7 | CCCCCCCCCCCCCCCC(=O)N[C@@H](CCC(=O)N[C@@H](CCC(=O)N[C@@H](CCC(=O)NCCCC[C@H](NC(=O)COCCOCCNC(=O)COCCOCCNC(=O)COCCOCCNC(=O)[C@H](CCCCNC(C)=O)NC(=O)[C@H](CCCCN)NC(=O)[C@H](CCCNC(=N)N)NC(=O)C(C)(C)NC(=O)[C@H](CO)NC(=O)[C@H](Cc1ccc(O)cc1)NC(=O)[C@@H](NC(=O)[C@H](CO)NC(=O)[C@H](CCC(N)=O)NC(=O)CNC(=O)[C@H](CCC(=O)O)NC(=O)C(C)(C)NC(=O)C(C)(C)NC(=O)[C@@H](NC(=O)[C@H](CCCCNC(C)=O)NC(=O)[C@H](C)NC(=O)[C@H](CCCNC(=N)N)NC(=O)[C@@H](NC(=O)[C@H](CCCCN)NC(=O)[C@H](CCC(=O)O)NC(=O)[C@H](CCCNC(=N)N)NC(=O)CNC(=O)[C@H](CCC(=O)O)NC(=O)[C@H](CC(C)C)NC(C)=O)C(C)C)[C@@H](C)CC)[C@@H](C)O)C(N)=O)C(=O)O)C(=O)O)C(=O)O [compound 179] (Ac-LEGREKVRAK(Ac)I[Aib][Aib]EGQSTYS[Aib]RKK(Ac)[AEEA][AEEA][AEEA]K([γGlu-γGlu-γGlu-Palmitoyl])-NH2) | 80% | 
